Data as given in ChEMBL document CHEMBL3507680, “University of Dundee, Gates Library screen for HepG2 cell viability”.

Test: Human HepG2 cell viability assay in 384 well format
Type: toxicity, cell-based
Parameters: dose 125 nL, time 70.5 hour; concentration not given beside the values
Settings: HepG2 cells, read-out: Inhibition

CN(C)c1ncc(CN2CCCC(Nc3ccc4c(c3)OCCO4)C2)s1 (stereo unspecified)
cytotoxicity at 70.5 h: -12.3%

Cc1cc(C)c2[nH]c(=O)c(CN3CCCC(O)(CO)C3)cc2c1 (stereo unspecified)
cytotoxicity at 70.5 h: -13.5%

COc1ccc(-n2cccn2)c(CN2CCC3(CCNCC3)C2)c1
cytotoxicity at 70.5 h: -9.48%

Cc1cccc(OC2(C(=O)O)CCN(C(=O)CCc3ccco3)CC2)c1
cytotoxicity at 70.5 h: 30.3%

Cc1ccccc1N1CCN(C(=O)c2ncc(F)cc2F)C(C)C1 (stereo unspecified)
cytotoxicity at 70.5 h: -3.38%

COc1cccc(-c2ncc(CN3CC[C@H](CO)[C@@H](O)C3)s2)c1
cytotoxicity at 70.5 h: -20.8%

O=C(c1cc(F)cc(Cl)c1)N1C[C@@H]2CC[C@H](C1)N(Cc1ccccc1)C2
cytotoxicity at 70.5 h: -3.75%

Cc1ccccc1N1CCCN(C(=O)CCc2cccnc2)CC1
cytotoxicity at 70.5 h: 0.239%

CCNC(=O)[C@@H]1C[C@H](N)CN1C(=O)c1c[nH]c2ccccc12
cytotoxicity at 70.5 h: -0.954%

O=C(O)C1(Oc2ccc3ccccc3c2)CCN(c2ccncc2)CC1
cytotoxicity at 70.5 h: 21.4%

C=C(C)COc1cccc(C(=O)N(C)C(C)c2ccncn2)c1 (stereo unspecified)
cytotoxicity at 70.5 h: -7.56%

Cc1cc(C)cc(CN2CCN(C(=O)CCc3n[nH]c(C)n3)CC2=O)c1
cytotoxicity at 70.5 h: 22.5%

CCCOc1ccc(OCCN2CCOCS2(=O)=O)cc1
cytotoxicity at 70.5 h: -10.3%

CN(Cc1cc2cc(F)ccc2[nH]1)C(=O)C1CC(=O)N(C2CCCC2)C1 (stereo unspecified)
cytotoxicity at 70.5 h: -4.53%

O=C(NCC1CCCO1)c1coc(Cn2cnc3ccccc32)n1 (stereo unspecified)
cytotoxicity at 70.5 h: -4.46%

CC(=O)NCCc1nc(C(C)C)nn1-c1ccncc1C
cytotoxicity at 70.5 h: -14.7%

COCC(=O)N1CCc2cccc(S(=O)(=O)N3CCOCC3)c2C1
cytotoxicity at 70.5 h: -6.37%

CN(CCc1ccccn1)C(=O)CCC1CCCN(c2ccncc2)C1 (stereo unspecified)
cytotoxicity at 70.5 h: 0%

CCSCCn1cc(-c2nccs2)nn1
cytotoxicity at 70.5 h: -9.08%

COc1cccc(-c2cccc(-c3ccn(CC4COCCO4)n3)c2)n1 (stereo unspecified)
cytotoxicity at 70.5 h: 13.1%

CSCCCN1C[C@H](NC(=O)c2cc(C3CC3)on2)[C@@H](C2CC2)C1
cytotoxicity at 70.5 h: -7.58%

O=C(NCCn1ccnc1-c1cc2n(n1)CCCNC2)c1ccncc1
cytotoxicity at 70.5 h: -2.02%

COc1ccc(N2CCC(N3C[C@H](NC(C)=O)[C@@H](C(C)C)C3)CC2)cc1
cytotoxicity at 70.5 h: -7.18%

Cc1noc(-c2ccc(N(C)Cc3ccncc3C)nc2)n1
cytotoxicity at 70.5 h: -5.41%

COC(=O)N1CCCCC1C(=O)N1CCN(c2ncccc2C)CC1 (stereo unspecified)
cytotoxicity at 70.5 h: -1.8%

CN(Cc1cc2n(n1)CCCNC2)Cc1ccno1
cytotoxicity at 70.5 h: -5.8%

Cc1cc(C)n2nc(C(=O)N3CCCC4(CCOC4)C3)cc2n1 (stereo unspecified)
cytotoxicity at 70.5 h: -10.3%

Cc1nc(C(=O)N2CCC(c3nnc(Cn4ccnc4)n3C)CC2)cs1
cytotoxicity at 70.5 h: -8.64%

CN(C)Cc1nnc(C2CCCN(Cc3ccc(Cl)s3)C2)n1C (stereo unspecified)
cytotoxicity at 70.5 h: 5.14%

CN(C)C(=O)c1cn2cc(-c3ccccc3Cl)n(CC3CC3)c(=O)c2n1
cytotoxicity at 70.5 h: -3.22%

CCC1CN(C(=O)c2cccc(O)c2)CCC(=O)N1Cc1ccccc1 (stereo unspecified)
cytotoxicity at 70.5 h: 0.303%

Cn1cc(CN2CCCC(CCc3c(F)cccc3F)C2)cn1 (stereo unspecified)
cytotoxicity at 70.5 h: 1.58%

CCn1ccnc1CNC1CC(=O)N(CCc2cccc(Cl)c2)C1 (stereo unspecified)
cytotoxicity at 70.5 h: -2.81%

COc1ccc(-c2n[nH]cc2CN(C)CCC2CCOCC2)cc1F
cytotoxicity at 70.5 h: -1.66%

O=C(CC1CCc2ccccc21)NC1(C(=O)O)CCCC1 (stereo unspecified)
cytotoxicity at 70.5 h: 22.9%

COc1cccc(CCn2ccnc2-c2cn(C3CCNCC3)nn2)c1
cytotoxicity at 70.5 h: 28.6%

CCCc1nccn1-c1ccc(C(O)CN2CCOCC2)cc1 (stereo unspecified)
cytotoxicity at 70.5 h: 27.6%

CCn1c(CC2CCN(C(=O)c3ccnn3C)CC2)n[nH]c1=O
cytotoxicity at 70.5 h: -6.64%

O=C1N(Cc2ccc(F)cc2)CCCC12CCN(C1CCSCC1)C2 (stereo unspecified)
cytotoxicity at 70.5 h: -6%

O=C(C1CCCC1)N1CC[C@]2(O)CCN(Cc3ncccn3)C[C@@H]2C1
cytotoxicity at 70.5 h: -3.12%

O=C(CCc1cc2n(n1)CCCN(C(=O)[C@H]1CCCO1)C2)NC1CC1
cytotoxicity at 70.5 h: 3.28%

COc1ccc(OC)c(C2CCN(C3CCOCC3)C2)c1 (stereo unspecified)
cytotoxicity at 70.5 h: 6.32%

CCOc1ccccc1C(=O)N1CCCC(O)(CN(C)C)C1 (stereo unspecified)
cytotoxicity at 70.5 h: 11.6%

Cc1nc(CN2CCN(C(=O)COc3c(C)ccc(C)c3C)CC2)no1
cytotoxicity at 70.5 h: -4.73%

Cc1ccc(NC(=O)[C@@H]2C[C@H](C(=O)O)CN(Cc3sccc3C)C2)cn1
cytotoxicity at 70.5 h: 18.3%

OC1CCN(c2ccnc(NCCc3ccccc3Cl)n2)C1 (stereo unspecified)
cytotoxicity at 70.5 h: -3.46%

N#Cc1cccc(N2CCC3(CC2)Nc2ccccc2NC3=O)n1
cytotoxicity at 70.5 h: -5.8%

CCn1c(N)nc2cc(C(=O)NCCc3ccncc3)cnc21
cytotoxicity at 70.5 h: -13.4%

O=C1CCCN1Cc1nc(-c2ccsc2)no1
cytotoxicity at 70.5 h: 19.8%

Cc1nc(N2CCC(O)(c3ccc(F)cc3)CC2)c2c(C)nn(C)c2n1
cytotoxicity at 70.5 h: -3.16%

CS(=O)(=O)N1CCC(NCC2(N3CCOCC3)CCCCC2)CC1
cytotoxicity at 70.5 h: -12.3%

O=C(NCC1CCCO1)Nc1nnc(C(F)(F)F)s1 (stereo unspecified)
cytotoxicity at 70.5 h: -15.8%

c1cncc(-n2cnnc2CC2CCNCC2)c1
cytotoxicity at 70.5 h: -0.719%

COc1cc(F)c(CN2CCN(CC(C)C)C(=O)C2C)cc1OC (stereo unspecified)
cytotoxicity at 70.5 h: -1.44%

CC(=O)N1CCc2c(nc(N(C)C)nc2NCc2cccs2)C1
cytotoxicity at 70.5 h: -4.81%

COc1cc(CN2CCCC23CCN(c2ccccn2)CC3)ccc1F
cytotoxicity at 70.5 h: -0.0865%
